Measurements from the supplement of paper PMC10307832.

Tests used:
Assay in all cases: relative viability (nuclei count vs DMSO), 5 days (fraction); higher = more cells survive
[1] = compound: CS(=O)(=O)c1ccc(-c2cnc(N)c(C(=O)Nc3ccccc3)n2)cc1 [VE-821] + N=C(N)NC(=N)NCCc1ccccc1 [Phenformin] (partner 250 µM)
Summary of the method: (§1)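 Lung cancer cell lines, seeded in 1536-well plates, were treated the following day by pin tool with a single drug or with five library-drug doses (not always all listed) in √10 steps on top of a fixed anchor-drug dose. Cells were fixed and nuclei stained in one step after 5 days, and nuclei were counted. Relative viability is the nuclei count for treated wells divided by that for vehicle wells, reported as medians of duplicate plates.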

[2] = compound: CS(=O)(=O)c1ccc(-c2cnc(N)c(C(=O)Nc3ccccc3)n2)cc1 [VE-821] + COc1cccc2cc(-c3nc([C@H]4CC[C@H](C(=O)O)CC4)n4ncnc(N)c34)[nH]c12 [OSI-027] (partner 0.5 µM)
Summary of the method: as §1

[3] = compound: N#CC[C@H](C1CCCC1)n1cc(-c2ncnc3[nH]ccc23)cn1 [Ruxolitinib] + CC(C)C[C@H](NC(=O)[C@H](Cc1ccccc1)NC(=O)c1cnccn1)B(O)O [Bortezomib] (partner 0.002 µM)
Summary of the method: as §1

[4] = compound: CS(=O)(=O)c1ccc(C(=O)Nc2ccc(Cl)c(-c3ccccn3)c2)c(Cl)c1 [Vismodegib] + CC(C)C[C@H](NC(=O)[C@H](Cc1ccccc1)NC(=O)c1cnccn1)B(O)O [Bortezomib] (partner 0.002 µM)
Summary of the method: as §1

Row | Cell Line | relative viability ([1]; first compound 0.08 µM) | relative viability ([1]; first compound 0.253 µM) | relative viability ([1]; first compound 0.8 µM) | relative viability ([1]; first compound 2.53 µM) | relative viability ([1]; first compound 8 µM) | relative viability ([2]; first compound 0.08 µM) | relative viability ([2]; first compound 0.253 µM) | relative viability ([2]; first compound 0.8 µM) | relative viability ([2]; first compound 2.53 µM) | relative viability ([2]; first compound 8 µM) | relative viability ([3]; first compound 0.08 µM) | relative viability ([3]; first compound 0.253 µM) | relative viability ([3]; first compound 0.8 µM) | relative viability ([3]; first compound 2.53 µM) | relative viability ([3]; first compound 8 µM) | relative viability ([4]; first compound 0.08 µM) | relative viability ([4]; first compound 0.253 µM) | relative viability ([4]; first compound 0.8 µM) | relative viability ([4]; first compound 2.53 µM) | relative viability ([4]; first compound 8 µM)
1 | 201T | 0.476 | 0.415 | 0.468 | 0.431 | 0.364 | 0.815 | 0.672 | 0.688 | 0.747 | 0.381 | 1.14 | 1.26 | 1.21 | 1.34 | 1.3 | 1.13 | 1.07 | 1.09 | 1.09 | 1.09
2 | A549 | 0.182 | 0.214 | 0.157 | 0.13 | 0.103 |  |  |  |  |  |  |  |  |  |  |  |  |  |  | 
3 | A-427 | 0.341 | 0.319 | 0.293 | 0.365 | 0.225 | 0.514 | 0.418 | 0.391 | 0.412 | 0.286 | 0.983 | 0.955 | 0.985 | 1.06 | 0.782 | 0.991 | 0.945 | 0.856 | 0.968 | 1.09
4 | ABC-1 | 0.308 | 0.26 | 0.203 | 0.244 | 0.211 | 0.53 | 0.485 | 0.485 | 0.475 | 0.381 | 0.324 | 0.303 | 0.325 | 0.284 | 0.285 | 0.332 | 0.244 | 0.331 | 0.299 | 0.324
5 | BEN | 0.284 | 0.281 | 0.283 | 0.257 | 0.249 | 0.279 | 0.297 | 0.332 | 0.277 | 0.316 | 0.634 | 0.693 | 0.824 | 0.747 | 1.16 | 0.574 | 0.787 | 0.819 | 0.846 | 0.885
6 | CAL-12T | 0.585 | 0.526 | 0.611 | 0.523 | 0.396 | 0.529 | 0.612 | 0.489 | 0.423 | 0.483 |  | 0.856 | 1.1 | 0.979 | 0.535 |  | 0.882 | 0.91 | 0.935 | 0.999
7 | COR-L23 | 0.444 | 0.438 | 0.472 | 0.502 | 0.427 | 0.9 | 0.751 | 0.797 | 0.766 | 0.63 | 1.16 | 1.03 | 1.06 | 0.9 | 0.758 | 1 | 0.938 | 0.983 | 0.916 | 1.09
8 | COR-L 105 | 0.519 | 0.325 | 0.472 | 0.387 | 0.343 | 0.741 | 0.551 | 0.647 | 0.642 | 0.695 | 0.925 | 0.949 | 0.826 | 0.536 | 0.647 | 0.765 | 0.907 | 0.778 | 0.753 | 0.665
9 | Calu-6 |  |  |  |  |  |  |  |  |  |  | 1.02 | 0.93 | 1.18 | 0.921 | 0.557 | 0.969 | 1.03 | 1.02 | 1.05 | 0.987
10 | ChaGo-K-1 | 0.454 | 0.459 | 0.536 | 0.496 | 0.427 | 0.624 | 0.475 | 0.669 | 0.649 | 0.419 |  | 0.929 | 0.94 | 0.976 | 0.701 | 0.971 | 0.957 | 0.845 | 0.744 | 1.04
11 | EBC-1 |  |  |  |  |  |  |  |  |  |  | 0.592 | 0.49 | 0.597 | 0.42 | 0.361 | 0.481 | 0.564 | 0.567 | 0.559 | 0.67
12 | EKVX | 0.241 | 0.223 | 0.204 | 0.221 | 0.226 | 0.696 | 0.675 | 0.676 | 0.745 | 0.605 | 0.785 | 0.994 | 0.986 | 0.989 | 0.929 | 1.1 | 1.09 | 1.1 | 1.06 | 1.03
13 | EMC-BAC-2 | 0.569 | 0.475 | 0.577 | 0.528 | 0.463 | 0.398 | 0.319 | 0.372 | 0.388 | 0.346 | 1.12 | 1.06 | 1.15 | 1.06 | 0.811 | 1.08 | 1.03 | 1.05 | 1.11 | 1.05
14 | EPLC-272H | 0.322 | 0.29 | 0.326 | 0.383 | 0.26 | 0.286 | 0.268 | 0.296 | 0.333 | 0.21 | 0.846 | 0.976 | 0.984 | 0.937 | 0.734 | 0.988 | 0.783 | 0.864 | 1.14 | 0.723
15 | H3255 | 0.377 | 0.338 | 0.42 | 0.344 | 0.383 | 0.603 | 0.584 | 0.637 | 0.606 | 0.566 |  | 0.595 | 0.836 | 0.6 | 0.598 | 0.855 | 0.632 | 0.596 | 0.762 | 0.753
16 | HARA | 0.497 | 0.459 | 0.469 | 0.484 | 0.356 | 0.75 | 0.434 | 0.497 | 0.76 | 0.392 | 1.29 | 1.06 | 1.11 | 0.534 | 1.09 | 1.08 | 1.1 | 1.11 | 1.19 | 1.17
17 | HCC-15 | 0.625 | 0.473 | 0.506 | 0.526 | 0.438 | 0.835 | 0.689 | 0.692 | 0.855 | 0.682 | 1.08 | 1.05 | 1.01 | 0.99 | 0.926 | 0.978 | 1.07 | 0.938 | 1.09 | 1
18 | HCC-44 | 0.261 | 0.15 | 0.263 | 0.198 | 0.266 | 0.498 | 0.427 | 0.634 | 0.563 | 0.556 | 0.888 | 0.944 | 0.914 | 0.933 | 0.689 | 0.918 | 0.816 | 0.897 | 0.841 | 0.901
